One data set in a line: PAMPA-GIT. The settings on record: at three different pH values. (PAMPA measures passive passage across an artificial lipid membrane.)
Data set [1] has as its system SARS-CoV-2 PsV. The settings on record: 48 h.
The target of a further data set is T1, HR1 peptide (911–987) (Severe acute respiratory syndrome coronavirus 2, UniProt P0DTC2).
T1 construct: purchased NovoPep Limited
Nature of the data set: Fluorescence polarization binding to HR1 peptide. More on the design: species or system SARS-CoV-2. (In general: Polarisation of emitted light reports the rotation of a fluorescent probe.)

Data set [2] relates to pseudotyped bat SARSr-CoV WIV1. The settings on record: 48 h.
The next data set concerns pseudotyped MERS-CoV. The note with it: 48 h.
Data set [3] relates to SARS-CoV-2 PsV. The settings on record: previously reported EK1 peptide; read-out: IC50, SARS-CoV-2 PsV infection, previously reported; cited from earlier work.
The subject of a further data set is pseudotyped SARS-CoV. The settings on record: 48 h.
The test system of the next data set is pseudotyped HCoV-NL63. The settings on record: 48 h.

Structures are written as SMILES. Where two headings read alike, the source gives them in different places.

As a reminder, the Papp is the rate of passage across a membrane or cell layer, normalised by area and donor concentration. A low value points to slow passage. The IC50 is the concentration needed to halve the response being measured. As usually defined, the Kd is the free concentration of one partner at which half of the binding sites on the other are occupied at equilibrium, for simple one-to-one binding.

In “PAMPA-GIT” (200 μM, negative control), `Cc1cc(=O)n(-c2ccccc2)n1C` [antipyrine] returned an apparent permeability coefficient (Papp) at 30 min, 200 μM of less than 6 ×10⁻⁶ cm/s.
With `CC(=O)N[C@H](CC(C)C)CN(CC(=O)N[C@H](CCCCN)CN(CC(=O)N[C@H](CC(C)C)CN(CC(=O)N[C@H](CCC(=O)O)CN(CC(=O)N[C@H](CC(C)C)CN(CC(=O)N[C@H](CCC(=O)O)CN(CC(=O)N[C@H](C)CN(CC(=O)N[C@H](CCCCN)CN(CC(=O)N[C@H](C)CN(CC(=O)N[C@H](CCC(=O)O)CN(CC(=O)N[C@H](CC(C)C)CN(CC(=O)N[C@H](CO)CN(CC(=O)N[C@H](CO)CN(CC(=O)N[C@@H](CSCC(=O)OCCOCCOCCOCCOCCOCCOCCOCCOCCOCCOCCOCCO[C@H]1CC[C@@]2(C)C(=CC[C@H]3[C@@H]4CC[C@H]([C@H](C)CCCC(C)C)[C@@]4(C)CC[C@@H]32)C1)C(N)=O)S(C)(=O)=O)S(C)(=O)=O)S(=O)(=O)CC(C)C)S(C)(=O)=O)S(=O)(=O)CCN)S(C)(=O)=O)S(=O)(=O)CCN)S(=O)(=O)CC(C)C)S(=O)(=O)CCN)S(=O)(=O)CCN)S(C)(=O)=O)S(=O)(=O)CCN)S(=O)(=O)CC(C)C` [XY4-C6], in the data set on SARS-CoV-2 PsV [1], the IC50 was found to be 2.63 µM.
The same measure, in the same setting: next, `CC(=O)N[C@H](CC(C)C)CN(CC(=O)N[C@H](CCCCN)CN(CC(=O)N[C@H](CC(C)C)CN(CC(=O)N[C@H](CCC(=O)O)CN(CC(=O)N[C@H](CC(C)C)CN(CC(=O)N[C@H](CCC(=O)O)CN(CC(=O)N[C@H](C)CN(CC(=O)N[C@H](CCCCN)CN(CC(=O)N[C@H](C)CN(CC(=O)N[C@H](CCC(=O)O)CN(CC(=O)N[C@H](CC(C)C)CN(CC(=O)N[C@H](CO)CN(CC(=O)N[C@H](CO)CN(CC(=O)N[C@@H](CSCC(=O)OCCOCCOCCOCCOCCOCCOCCOCCO[C@H]1CC[C@@]2(C)C(=CC[C@H]3[C@@H]4CC[C@H]([C@H](C)CCCC(C)C)[C@@]4(C)CC[C@@H]32)C1)C(N)=O)S(C)(=O)=O)S(C)(=O)=O)S(=O)(=O)CC(C)C)S(C)(=O)=O)S(=O)(=O)CCN)S(C)(=O)=O)S(=O)(=O)CCN)S(=O)(=O)CC(C)C)S(=O)(=O)CCN)S(=O)(=O)CCN)S(C)(=O)=O)S(=O)(=O)CCN)S(=O)(=O)CC(C)C` [XY4-C5]: 4.05 µM.
For the compound `CC(=O)N[C@H](CC(C)C)CN(CC(=O)N[C@H](CCCCN)CN(CC(=O)N[C@H](CC(C)C)CN(CC(=O)N[C@H](CCC(=O)O)CN(CC(=O)N[C@H](CC(C)C)CN(CC(=O)N[C@H](CCC(=O)O)CN(CC(=O)N[C@H](C)CN(CC(=O)N[C@H](CCCCN)CN(CC(=O)N[C@H](C)CN(CC(=O)N[C@H](CCC(=O)O)CN(CC(=O)N[C@H](CC(C)C)CN(CC(N)=O)S(=O)(=O)CC(C)C)S(=O)(=O)CC(C)C)S(=O)(=O)CCN)S(C)(=O)=O)S(=O)(=O)CCN)S(=O)(=O)CC(C)C)S(=O)(=O)CCN)S(=O)(=O)CCN)S(C)(=O)=O)S(=O)(=O)CCN)S(=O)(=O)CCN` [XY2], binding on HR1 peptide (911–987) was characterised by a dissociation constant (Kd) of 0.329 µM.
Regarding `CC[C@H](C)[C@H](NC(=O)[C@H](C)NC(=O)[C@H](CCC(=O)O)NC(=O)[C@H](CCC(=O)O)NC(=O)[C@H](CC(C)C)NC(=O)[C@H](CCCCN)NC(=O)[C@H](CCCCN)NC(=O)[C@H](CCSC)NC(=O)[C@H](CCC(=O)O)NC(=O)[C@H](Cc1ccc(O)cc1)NC(=O)[C@H](CCC(=O)O)NC(=O)[C@H](CC(C)C)NC(=O)[C@H](CC(=O)O)NC(=O)[C@H](CC(C)C)NC(=O)[C@H](Cc1ccccc1)NC(=O)[C@@H](NC(=O)[C@@H](NC(=O)[C@H](CC(N)=O)NC(=O)[C@@H](NC(=O)[C@H](CCC(N)=O)NC(=O)[C@H](CC(=O)O)NC(=O)[C@H](CC(C)C)NC(=O)[C@@H](N)CO)[C@@H](C)CC)C(C)C)[C@@H](C)O)C(=O)N[C@@H](CCCCN)C(=O)N[C@@H](CCCCN)C(=O)N[C@@H](CC(C)C)C(=O)N[C@@H](CCC(=O)O)C(=O)N[C@@H](CCC(=O)O)C(=O)N[C@@H](CO)C(=O)N[C@@H](Cc1ccc(O)cc1)C(=O)N[C@H](C(=O)N[C@@H](CC(=O)O)C(=O)N[C@@H](CC(C)C)C(=O)N[C@@H](CCCCN)C(=O)N[C@@H](CCC(=O)O)C(=O)N[C@@H](CC(C)C)C(=O)O)[C@@H](C)CC` [EK1], the 50% inhibitory concentration (IC50) in data set [2] is 19 µM; in the data set on pseudotyped MERS-CoV, 0.21 µM; in the data set on SARS-CoV-2 PsV [3] it was 2.38 µM; in the data set on pseudotyped SARS-CoV, 1.21 µM; in the data set with pseudotyped HCoV-NL63, 4.17 µM.
In the case of `CC(=O)N[C@H](CC(C)C)CN(CC(=O)N[C@H](CCCCN)CN(CC(=O)N[C@H](CC(C)C)CN(CC(=O)N[C@H](CCC(=O)O)CN(CC(=O)N[C@H](CC(C)C)CN(CC(=O)N[C@H](CCC(=O)O)CN(CC(=O)N[C@H](C)CN(CC(=O)N[C@H](CCCCN)CN(CC(=O)N[C@H](C)CN(CC(=O)N[C@H](CCC(=O)O)CN(CC(=O)N[C@H](CC(C)C)CN(CC(=O)NCCCCCC(=O)NCCCCCC(=O)N[C@@H](CSCC(=O)OCCOCCOCCOCCO[C@H]1CC[C@@]2(C)C(=CC[C@H]3[C@@H]4CC[C@H]([C@H](C)CCCC(C)C)[C@@]4(C)CC[C@@H]32)C1)C(N)=O)S(=O)(=O)CC(C)C)S(C)(=O)=O)S(=O)(=O)CCN)S(C)(=O)=O)S(=O)(=O)CCN)S(=O)(=O)CC(C)C)S(=O)(=O)CCN)S(=O)(=O)CCN)S(C)(=O)=O)S(=O)(=O)CCN)S(=O)(=O)CC(C)C` [XY4-C1], the IC50 with SARS-CoV-2 PsV [1] was determined as 29.8 µM.
`CC(=O)N[C@H](CC(C)C)CN(CC(=O)N[C@H](CCCCN)CN(CC(=O)N[C@H](CC(C)C)CN(CC(=O)N[C@H](CCC(=O)O)CN(CC(=O)N[C@H](CC(C)C)CN(CC(=O)N[C@H](CCC(=O)O)CN(CC(=O)N[C@H](C)CN(CC(=O)N[C@H](CCCCN)CN(CC(=O)N[C@H](C)CN(CC(=O)N[C@H](CCC(=O)O)CN(CC(=O)N[C@H](CC(C)C)CN(CC(N)=O)S(=O)(=O)CC(C)C)S(C)(=O)=O)S(=O)(=O)CCN)S(C)(=O)=O)S(=O)(=O)CCN)S(=O)(=O)CC(C)C)S(=O)(=O)CCN)S(=O)(=O)CCN)S(C)(=O)=O)S(=O)(=O)CCN)S(=O)(=O)CC(C)C` [XY4] came in with a dissociation constant Kd on HR1 peptide (911–987) of 0.132 µM.
The compound `CC(=O)N[C@H](CC(C)C)CN(CC(=O)N[C@H](CCCCN)CN(CC(=O)N[C@H](CC(C)C)CN(CC(=O)N[C@H](CCC(=O)O)CN(CC(=O)N[C@H](CC(C)C)CN(CC(=O)N[C@H](CCC(=O)O)CN(CC(=O)N[C@H](C)CN(CC(=O)N[C@H](CCCCN)CN(CC(=O)N[C@H](C)CN(CC(=O)N[C@H](CCC(=O)O)CN(CC(=O)N[C@H](CC(C)C)CN(CC(=O)NCCCCCC(=O)NCCCCCC(=O)N[C@@H](CSCC(=O)OCCOCCOCCOCCOCCOCCOCCOCCOCCOCCOCCOCCO[C@H]1CC[C@@]2(C)C(=CC[C@H]3[C@@H]4CC[C@H]([C@H](C)CCCC(C)C)[C@@]4(C)CC[C@@H]32)C1)C(N)=O)S(=O)(=O)CC(C)C)S(C)(=O)=O)S(=O)(=O)CCN)S(C)(=O)=O)S(=O)(=O)CCN)S(=O)(=O)CC(C)C)S(=O)(=O)CCN)S(=O)(=O)CCN)S(C)(=O)=O)S(=O)(=O)CCN)S(=O)(=O)CC(C)C` [XY4-C3] registered a concentration for half-maximal inhibition (IC50) in the data set with SARS-CoV-2 PsV [1] of 0.92 µM.
Same read-out and setting: in the case of `CC(=O)N[C@H](CC(C)C)CN(CC(=O)N[C@H](CCCCN)CN(CC(=O)N[C@H](CC(C)C)CN(CC(=O)N[C@H](CCC(=O)O)CN(CC(=O)N[C@H](CC(C)C)CN(CC(=O)N[C@H](CCC(=O)O)CN(CC(=O)N[C@H](C)CN(CC(=O)N[C@H](CCCCN)CN(CC(=O)N[C@H](C)CN(CC(=O)N[C@H](CCC(=O)O)CN(CC(=O)N[C@H](CC(C)C)CN(CC(=O)NCCCCCC(=O)NCCCCCC(=O)N[C@@H](CSCC(=O)OCCOCCOCCOCCOCCOCCOCCOCCO[C@H]1CC[C@@]2(C)C(=CC[C@H]3[C@@H]4CC[C@H]([C@H](C)CCCC(C)C)[C@@]4(C)CC[C@@H]32)C1)C(N)=O)S(=O)(=O)CC(C)C)S(C)(=O)=O)S(=O)(=O)CCN)S(C)(=O)=O)S(=O)(=O)CCN)S(=O)(=O)CC(C)C)S(=O)(=O)CCN)S(=O)(=O)CCN)S(C)(=O)=O)S(=O)(=O)CCN)S(=O)(=O)CC(C)C` [XY4-C2] it was 2.85 µM.
With `CC(=O)N[C@H](CC(C)C)CN(CC(=O)N[C@H](CCCCN)CN(CC(=O)N[C@H](CC(C)C)CN(CC(=O)N[C@H](CCC(=O)O)CN(CC(=O)N[C@H](CC(C)C)CN(CC(=O)N[C@H](CCC(=O)O)CN(CC(=O)N[C@H](C)CN(CC(=O)N[C@H](CCCCN)CN(CC(=O)N[C@H](C)CN(CC(=O)N[C@H](CCC(=O)O)CN(CC(=O)N[C@H](CC(C)C)CN(CC(N)=O)S(=O)(=O)CC(C)C)S(C)(=O)=O)S(=O)(=O)CCN)S(C)(=O)=O)S(=O)(=O)CCN)S(=O)(=O)CC(C)C)S(=O)(=O)CCN)S(=O)(=O)CCN)S(C)(=O)=O)S(=O)(=O)CCN)S(=O)(=O)CCN` [XY1], on HR1 peptide (911–987), binding was characterised by a dissociation constant (Kd) of 0.287 µM.
`NC(=O)N1c2ccccc2C=Cc2ccccc21` [carbamazepine]: the Papp at 30 min, 50 μM in “PAMPA-GIT” (50 μM, positive control) was approximately 150 ×10⁻⁶ cm/s.
`CC(=O)N[C@H](CC(C)C)CN(CC(=O)N[C@H](CCCCN)CN(CC(=O)N[C@H](CC(C)C)CN(CC(=O)N[C@H](CCC(=O)O)CN(CC(=O)N[C@H](CC(C)C)CN(CC(=O)N[C@H](CCC(=O)O)CN(CC(=O)N[C@H](C)CN(CC(=O)N[C@H](CCCCN)CN(CC(=O)N[C@H](C)CN(CC(=O)N[C@H](CCC(=O)O)CN(CC(=O)N[C@H](CC(C)C)CN(CC(N)=O)S(=O)(=O)CC(C)C)S(C)(=O)=O)S(=O)(=O)CCN)S(=O)(=O)CC(C)C)S(=O)(=O)CCN)S(=O)(=O)CC(C)C)S(=O)(=O)CCN)S(=O)(=O)CCN)S(C)(=O)=O)S(=O)(=O)CCN)S(=O)(=O)CCN` [XY3] yielded a dissociation constant (Kd) on HR1 peptide (911–987) of 0.426 µM.
